# From PubChem BioAssay (NCI)
#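 48-hour exposure; five concentrations; linearly interpolated endpoints. Definition used: TGI = concentration required for complete inhibition of growth.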
# Tested on: M14 melanoma
# Experiment: growth of human tumour cells (NCI), 48 h
row,SMILES,TGI [µM]
1,CC1=C(C)CC2C(=O)N(c3cc(C(C)(C)C)ccc3C(C)(C)C)C(=O)C2C1 (stereo not given),> 100
2,O=c1[nH]nnc2c1sc1ncccc12,> 100
3,Cc1ccc(C2SCC(=O)N2c2ccc(-n3c(-c4ccccc4)nc4ccccc4c3=O)cc2)cc1 (stereo not given),69.2
4,O=[N+]([O-])c1ccc(CN(CCCl)OCCCl)cc1,> 100
5,CC1=NN(c2nc(N)nc(/C(C#N)=C\c3ccc([N+](=O)[O-])s3)n2)C(C)(C)C1,0.8
6,O=c1[nH]cnc2c1cnn2Cc1cn(CCCCO)nn1,> 100
7,CN1CCc2c([nH]c3ccccc23)C1,> 100
8,CC(C)(C)OC(=O)N(CCCCN(CCCNC(=O)C(F)(F)F)C(=O)OC(C)(C)C)CCCNC(=O)C(F)(F)F,> 100
9,CCOC1(OCC)C2C=CC1C(COS(=O)(=O)c1ccc(C)cc1)C2COS(=O)(=O)c1ccc(C)cc1 (stereo not given),96.5
10,Cc1[nH]c(=O)nc2nc3ccc(Cl)cc3c(NCCNCCO)c12,25.8

# Tested on: NCI/ADR-RES ovarian
# Experiment: growth of human tumour cells (NCI), 48 h
row,SMILES,TGI [µM]
1,O=[N+]([O-])C[C@@]12O[C@]3(O)C4C5CC(C6C5C3C61)C42 (stereo not given in full),> 100
2,C=C(Cl)C(=CCl)CCC(Br)C(C)(C)Cl (mixture of isomers),> 10
3,CN1C(=O)c2ccccc2OC12C=Cc1c(ccc3ccccc13)O2 (stereo not given),6.79
4,CCCC(=O)NC(NC1CCCCC1)(C(=O)OCC)C(F)(F)F (stereo not given),> 100
5,Cc1ccc2c(c1)C(=S)N1CSCC1c1nncn1-2 (stereo not given),> 100
6,CC(C)NC(=O)OCc1c(COC(=O)NC(C)C)c(-c2cc[n+](COC(=O)C3CC3)cc2)n2c1CCC2,> 100
7,COC(=O)C1=C(C(=O)OC)N(c2ccc(OC)cc2[N+](=O)[O-])C(c2ccc(C)cc2)=CC1c1ccc(OC)cc1OC (stereo not given),> 77.8
8,COc1cccc(C2c3cc4c(cc3OC(N3CCCCC3)C2C)OCO4)c1O (stereo not given),> 100
9,CN(CCSCCN(C)C(=O)OC(C)(C)C)C(=O)OC(C)(C)C,> 100
10,CC1=C(C)CC2C(=O)N(c3cc(C(C)(C)C)ccc3C(C)(C)C)C(=O)C2C1 (stereo not given),> 100
11,O=c1[nH]nnc2c1sc1ncccc12,> 100
12,Cc1ccc(C2SCC(=O)N2c2ccc(-n3c(-c4ccccc4)nc4ccccc4c3=O)cc2)cc1 (stereo not given),63.1
13,O=[N+]([O-])c1ccc(CN(CCCl)OCCCl)cc1,> 100
14,CC1=NN(c2nc(N)nc(/C(C#N)=C\c3ccc([N+](=O)[O-])s3)n2)C(C)(C)C1,12.8
15,O=c1[nH]cnc2c1cnn2Cc1cn(CCCCO)nn1,> 100
16,CN1CCc2c([nH]c3ccccc23)C1,> 100
17,CC(C)(C)OC(=O)N(CCCCN(CCCNC(=O)C(F)(F)F)C(=O)OC(C)(C)C)CCCNC(=O)C(F)(F)F,> 100
18,CCOC1(OCC)C2C=CC1C(COS(=O)(=O)c1ccc(C)cc1)C2COS(=O)(=O)c1ccc(C)cc1 (stereo not given),> 100
19,Cc1[nH]c(=O)nc2nc3ccc(Cl)cc3c(NCCNCCO)c12,42.3

# Tested on: SN12C renal
# Experiment: growth of human tumour cells (NCI), 48 h
row,SMILES,TGI [µM]
1,O=[N+]([O-])C[C@@]12O[C@]3(O)C4C5CC(C6C5C3C61)C42 (stereo not given in full),> 100
2,C=C(Cl)C(=CCl)CCC(Br)C(C)(C)Cl (mixture of isomers),> 10
3,CN1C(=O)c2ccccc2OC12C=Cc1c(ccc3ccccc13)O2 (stereo not given),> 57.1
4,CCCC(=O)NC(NC1CCCCC1)(C(=O)OCC)C(F)(F)F (stereo not given),> 100
5,Cc1ccc2c(c1)C(=S)N1CSCC1c1nncn1-2 (stereo not given),> 100
6,CC(C)NC(=O)OCc1c(COC(=O)NC(C)C)c(-c2cc[n+](COC(=O)C3CC3)cc2)n2c1CCC2,> 100
7,COC(=O)C1=C(C(=O)OC)N(c2ccc(OC)cc2[N+](=O)[O-])C(c2ccc(C)cc2)=CC1c1ccc(OC)cc1OC (stereo not given),26.5
8,COc1cccc(C2c3cc4c(cc3OC(N3CCCCC3)C2C)OCO4)c1O (stereo not given),19.4
9,CN(CCSCCN(C)C(=O)OC(C)(C)C)C(=O)OC(C)(C)C,> 100
10,CC1=C(C)CC2C(=O)N(c3cc(C(C)(C)C)ccc3C(C)(C)C)C(=O)C2C1 (stereo not given),> 100
11,O=c1[nH]nnc2c1sc1ncccc12,> 100
12,Cc1ccc(C2SCC(=O)N2c2ccc(-n3c(-c4ccccc4)nc4ccccc4c3=O)cc2)cc1 (stereo not given),> 100
13,O=[N+]([O-])c1ccc(CN(CCCl)OCCCl)cc1,> 100
14,CC1=NN(c2nc(N)nc(/C(C#N)=C\c3ccc([N+](=O)[O-])s3)n2)C(C)(C)C1,1.51
15,O=c1[nH]cnc2c1cnn2Cc1cn(CCCCO)nn1,> 100
16,CN1CCc2c([nH]c3ccccc23)C1,> 100
17,CC(C)(C)OC(=O)N(CCCCN(CCCNC(=O)C(F)(F)F)C(=O)OC(C)(C)C)CCCNC(=O)C(F)(F)F,> 100
18,CCOC1(OCC)C2C=CC1C(COS(=O)(=O)c1ccc(C)cc1)C2COS(=O)(=O)c1ccc(C)cc1 (stereo not given),> 100
19,Cc1[nH]c(=O)nc2nc3ccc(Cl)cc3c(NCCNCCO)c12,19.8

# Tested on: OVCAR-4 ovarian
# Experiment: growth of human tumour cells (NCI), 48 h
row,SMILES,TGI [µM]
1,O=[N+]([O-])C[C@@]12O[C@]3(O)C4C5CC(C6C5C3C61)C42 (stereo not given in full),> 100
2,C=C(Cl)C(=CCl)CCC(Br)C(C)(C)Cl (mixture of isomers),> 10
3,CN1C(=O)c2ccccc2OC12C=Cc1c(ccc3ccccc13)O2 (stereo not given),> 52.7
4,CCCC(=O)NC(NC1CCCCC1)(C(=O)OCC)C(F)(F)F (stereo not given),> 100
5,Cc1ccc2c(c1)C(=S)N1CSCC1c1nncn1-2 (stereo not given),> 100
6,CC(C)NC(=O)OCc1c(COC(=O)NC(C)C)c(-c2cc[n+](COC(=O)C3CC3)cc2)n2c1CCC2,> 100
7,COC(=O)C1=C(C(=O)OC)N(c2ccc(OC)cc2[N+](=O)[O-])C(c2ccc(C)cc2)=CC1c1ccc(OC)cc1OC (stereo not given),> 100
8,COc1cccc(C2c3cc4c(cc3OC(N3CCCCC3)C2C)OCO4)c1O (stereo not given),> 100
9,CN(CCSCCN(C)C(=O)OC(C)(C)C)C(=O)OC(C)(C)C,> 100
10,CC1=C(C)CC2C(=O)N(c3cc(C(C)(C)C)ccc3C(C)(C)C)C(=O)C2C1 (stereo not given),> 100
11,O=c1[nH]nnc2c1sc1ncccc12,> 100
12,Cc1ccc(C2SCC(=O)N2c2ccc(-n3c(-c4ccccc4)nc4ccccc4c3=O)cc2)cc1 (stereo not given),> 100
13,O=[N+]([O-])c1ccc(CN(CCCl)OCCCl)cc1,> 100
14,CC1=NN(c2nc(N)nc(/C(C#N)=C\c3ccc([N+](=O)[O-])s3)n2)C(C)(C)C1,12.1
15,O=c1[nH]cnc2c1cnn2Cc1cn(CCCCO)nn1,> 100
16,CN1CCc2c([nH]c3ccccc23)C1,> 100
17,CC(C)(C)OC(=O)N(CCCCN(CCCNC(=O)C(F)(F)F)C(=O)OC(C)(C)C)CCCNC(=O)C(F)(F)F,> 100
18,CCOC1(OCC)C2C=CC1C(COS(=O)(=O)c1ccc(C)cc1)C2COS(=O)(=O)c1ccc(C)cc1 (stereo not given),79.2
19,Cc1[nH]c(=O)nc2nc3ccc(Cl)cc3c(NCCNCCO)c12,26.2

# Tested on: SF-295 CNS
# Experiment: growth of human tumour cells (NCI), 48 h
row,SMILES,TGI [µM]
1,O=[N+]([O-])C[C@@]12O[C@]3(O)C4C5CC(C6C5C3C61)C42 (stereo not given in full),> 100
2,C=C(Cl)C(=CCl)CCC(Br)C(C)(C)Cl (mixture of isomers),> 10
3,CN1C(=O)c2ccccc2OC12C=Cc1c(ccc3ccccc13)O2 (stereo not given),12.7
4,CCCC(=O)NC(NC1CCCCC1)(C(=O)OCC)C(F)(F)F (stereo not given),> 100
5,Cc1ccc2c(c1)C(=S)N1CSCC1c1nncn1-2 (stereo not given),> 100
6,CC(C)NC(=O)OCc1c(COC(=O)NC(C)C)c(-c2cc[n+](COC(=O)C3CC3)cc2)n2c1CCC2,> 100
7,COC(=O)C1=C(C(=O)OC)N(c2ccc(OC)cc2[N+](=O)[O-])C(c2ccc(C)cc2)=CC1c1ccc(OC)cc1OC (stereo not given),> 100
8,COc1cccc(C2c3cc4c(cc3OC(N3CCCCC3)C2C)OCO4)c1O (stereo not given),24.3
9,CN(CCSCCN(C)C(=O)OC(C)(C)C)C(=O)OC(C)(C)C,> 100
10,CC1=C(C)CC2C(=O)N(c3cc(C(C)(C)C)ccc3C(C)(C)C)C(=O)C2C1 (stereo not given),> 100
11,O=c1[nH]nnc2c1sc1ncccc12,> 100
12,Cc1ccc(C2SCC(=O)N2c2ccc(-n3c(-c4ccccc4)nc4ccccc4c3=O)cc2)cc1 (stereo not given),44.7
13,O=[N+]([O-])c1ccc(CN(CCCl)OCCCl)cc1,> 100
14,CC1=NN(c2nc(N)nc(/C(C#N)=C\c3ccc([N+](=O)[O-])s3)n2)C(C)(C)C1,23.1
15,O=c1[nH]cnc2c1cnn2Cc1cn(CCCCO)nn1,> 100
16,CN1CCc2c([nH]c3ccccc23)C1,> 100
17,CC(C)(C)OC(=O)N(CCCCN(CCCNC(=O)C(F)(F)F)C(=O)OC(C)(C)C)CCCNC(=O)C(F)(F)F,> 100
18,CCOC1(OCC)C2C=CC1C(COS(=O)(=O)c1ccc(C)cc1)C2COS(=O)(=O)c1ccc(C)cc1 (stereo not given),> 100
19,Cc1[nH]c(=O)nc2nc3ccc(Cl)cc3c(NCCNCCO)c12,30.2

# Tested on: SK-OV-3 ovarian
# Experiment: growth of human tumour cells (NCI), 48 h
row,SMILES,TGI [µM]
1,O=[N+]([O-])C[C@@]12O[C@]3(O)C4C5CC(C6C5C3C61)C42 (stereo not given in full),> 100
2,C=C(Cl)C(=CCl)CCC(Br)C(C)(C)Cl (mixture of isomers),> 10
3,CN1C(=O)c2ccccc2OC12C=Cc1c(ccc3ccccc13)O2 (stereo not given),27.4
4,CCCC(=O)NC(NC1CCCCC1)(C(=O)OCC)C(F)(F)F (stereo not given),> 100
